Measured values: US20260158102A1, “CYCLIC PEPTIDE DERIVATIVE COMPOSITION FOR TREATING OR PREVENTING NEUROPATHIC PAIN AND/OR INFLAMMATORY PAIN” (DKS Co. Ltd., priority 2022, published 2026)

Legend:
[1] = Body weight measurement in rat STZ-induced diabetes model; type: in vivo; details: 20 mg/kg oral, mean ± SE, in g (unit assumed)
Method: (§1) Compound 9 (50 mg/mL) was diluted with water for injection to obtain a 1 mg/mL administration specimen. For the specimens to be administered at 0.1 mg/mL and 0.01 mg/mL, the specimen to be administered at 1 mg/mL was diluted stepwise with water for injection. Each administration specimen was divided into PP disposable tubes every day and stored in a storehouse (freezer: MDF-MU339H-PJ, PHC Corporation) under the condition of freezing (−30° C. to −20° C., measured value: −26.4 to −24.5° C.). Preparation was performed on the day before the start of administration.
(§2) Water for injection was added to and dissolved in Pregabalin taken out from the capsule to obtain 2 mg/mL. It was prepared before use.
(§3) • Animal species: rat (SPF) • Strain: Crl: CD (SD) • Date of animal acquisition, gender, age in weeks, number of animals acquired, and weight range after 1 day of acquisition • First and second courses: Apr. 6, 2022, male, 7 weeks old, 35 animals, 217 to 237 g • Third and fourth courses: Apr. 13, 2022, male, 7 weeks old, 35 animals, 216 to 235 g • Source: […].
(§4) • Dose volume: calculated at 2 mL/kg based on the body weight on the day of administration. • Number of times of administration: once • Day of administration: 7 days before the day of starting administration of the test substance.
(§5) • Dose volume: calculated at 1 mL/kg based on the body weight on the day of administration. • Number of times of administration: 9 times • Interval of administration: once every 3 days (evaluation was performed on the day after administration) • Day of starting administration: day 8 of STZ administration (day of STZ administration is counted as day 1).
(§6) • Dose volume: calculated at 10 mL/kg based on the body weight on the day of administration. • Number of times of administration: Administration was performed once on the day of evaluation of neuropathic pain, twice in total, and on the other days of administration, a vehicle for a control substance (water for injection) was orally administered.
• Measurement was performed every day after the day of STZ administration.
(§7) The mean and standard error of each group were calculated for the 50% withdrawal threshold, body weight, and blood glucose level.
(§8) The body weight was an integer.
(§9) No significant difference test of body weight and blood glucose levels was performed.

[2] = Measurement of blood glucose level in rat STZ-induced diabetes model; type: in vivo; details: mean ± SE
Method: as §1, §2, §3, §4, §5, §6
On days 7 and 35 of STZ administration, about 50 μL of blood was collected from the tail vein using a winged injection needle (Terumo Corporation) equipped with a heparinized capillary (DRUMMOND […]).
The blood obtained above was centrifuged [centrifugal conditions: 4° C., 3,000 rpm (×2,150 g), 15 min] with a centrifuge (CF 9RX, Hitachi Koki Co., Ltd.) to obtain plasma. Blood glucose levels of a part of plasma obtained by blood collection on day 7 and day 35 after STZ administration were measured by hexokinase G-6 PDH method (L-type Wako Glu2, FUJIFILM Wako Pure Chemical Corporation) using a biochemical automatic analyzer (AU480, Beckman Coulter, Inc.). […] The plasma after the measurement was discarded.
as §7, §8, §9

SMILES: CC(C)C[C@H](CN)CC(=O)O [Pregabalin, reference compound]
- Body weight ([1]; day 1 of STZ administration): 293 ± 5
- Body weight ([1]; day 2 of STZ administration): 278 ± 5
- Body weight ([1]; day 3 of STZ administration): 272 ± 5
- Body weight ([1]; day 4 of STZ administration): 275 ± 4
- Body weight ([1]; day 5 of STZ administration): 280 ± 4
- Body weight ([1]; day 6 of STZ administration): 282 ± 4
- Body weight ([1]; day 7 of STZ administration): 288 ± 4
- Body weight ([1]; day 8 of STZ administration): 285 ± 4
- Body weight ([1]; day 9 of STZ administration): 289 ± 4
- Body weight ([1]; day 10 of STZ administration): 291 ± 5
- Body weight ([1]; day 11 of STZ administration): 297 ± 4
- Body weight ([1]; day 12 of STZ administration): 297 ± 5
- Body weight ([1]; day 13 of STZ administration): 298 ± 5
- Body weight ([1]; day 14 of STZ administration): 302 ± 6
- Body weight ([1]; day 15 of STZ administration): 297 ± 4
- Body weight ([1]; day 16 of STZ administration): 300 ± 5
- Body weight ([1]; day 17 of STZ administration): 304 ± 5
- Body weight ([1]; day 18 of STZ administration): 303 ± 5
- Body weight ([1]; day 19 of STZ administration): 302 ± 6
- Body weight ([1]; day 20 of STZ administration): 308 ± 5
- Body weight ([1]; day 21 of STZ administration): 305 ± 6
- Body weight ([1]; day 22 of STZ administration): 309 ± 5
- Body weight ([1]; day 23 of STZ administration): 307 ± 7
- Body weight ([1]; day 24 of STZ administration): 305 ± 7
- Body weight ([1]; day 25 of STZ administration): 307 ± 6
- Body weight ([1]; day 26 of STZ administration): 309 ± 6
- Body weight ([1]; day 27 of STZ administration): 304 ± 7
- Body weight ([1]; day 28 of STZ administration): 307 ± 7
- Body weight ([1]; day 29 of STZ administration): 302 ± 7
- Body weight ([1]; day 30 of STZ administration): 302 ± 7
- Body weight ([1]; day 31 of STZ administration): 304 ± 8
- Body weight ([1]; day 32 of STZ administration): 305 ± 8
- Body weight ([1]; day 33 of STZ administration): 307 ± 8
- Body weight ([1]; day 34 of STZ administration): 306 ± 7
- Body weight ([1]; day 35 of STZ administration): 307 ± 7
- Blood glucose level, Glu ([2]; 20 mg/kg oral group, day 7 of STZ administration (before start of dosing)): 575.8 ± 20.0 mg/dL
- Blood glucose level, Glu ([2]; 20 mg/kg oral, day 35 of STZ administration): 567.4 ± 22.5 mg/dL
